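Here, GI50 denotes the concentration required for 50% inhibition of growth. TGI marks complete inhibition of growth.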
Key:
Experiment in all cases: inhibition of tumour cell growth, NCI panel, 384-well format
EKVX NSCLC = test system: EKVX NSCLC
HT29 colon = test system: HT29 colon
SW-620 colon = test system: SW-620 colon
UACC-62 melanoma = test system: UACC-62 melanoma
MDA-MB-435 melanoma = test system: MDA-MB-435 melanoma
MDA-MB-231 breast = test system: MDA-MB-231 breast
UACC-257 melanoma = test system: UACC-257 melanoma
ACHN renal = test system: ACHN renal
SK-MEL-28 melanoma = test system: SK-MEL-28 melanoma
SK-MEL-5 melanoma = test system: SK-MEL-5 melanoma
HOP-62 NSCLC = test system: HOP-62 NSCLC
NCI-H226 lung = test system: NCI-H226 lung
CAKI-1 renal = test system: CAKI-1 renal
U251 glioblastoma = test system: U251 glioblastoma
HL-60(TB) leukemia = test system: HL-60(TB) leukemia
MDA-MB-468 breast = test system: MDA-MB-468 breast
NCI-H460 NSCLC = test system: NCI-H460 NSCLC
HCC-2998 colon = test system: HCC-2998 colon
HCT-15 colon = test system: HCT-15 colon
OVCAR-4 ovarian = test system: OVCAR-4 ovarian
SF-268 CNS = test system: SF-268 CNS
KM12 colon = test system: KM12 colon
SR leukemia = test system: SR leukemia
HCT-116 colon = test system: HCT-116 colon
NCI-H23 lung = test system: NCI-H23 lung
NCI/ADR-RES ovarian = test system: NCI/ADR-RES ovarian
SN12C renal = test system: SN12C renal
MALME-3M melanoma = test system: MALME-3M melanoma
LOX IMVI melanoma = test system: LOX IMVI melanoma
SK-OV-3 ovarian = test system: SK-OV-3 ovarian
DU-145 prostate = test system: DU-145 prostate
PC-3 prostate = test system: PC-3 prostate
HOP-92 NSCLC = test system: HOP-92 NSCLC
TK-10 renal = test system: TK-10 renal
A549 NSCLC = test system: A549 NSCLC
OVCAR-5 ovarian = test system: OVCAR-5 ovarian
RXF 393 renal = test system: RXF 393 renal
SF-539 CNS = test system: SF-539 CNS
T-47D breast = test system: T-47D breast
BT-549 breast = test system: BT-549 breast
SF-295 CNS = test system: SF-295 CNS
NCI-H522 lung = test system: NCI-H522 lung
A498 renal = test system: A498 renal
OVCAR-3 ovarian = test system: OVCAR-3 ovarian
HS 578T breast = test system: HS 578T breast
MOLT-4 leukemia = test system: MOLT-4 leukemia
RPMI-8226 leukemia = test system: RPMI-8226 leukemia
COLO 205 colon = test system: COLO 205 colon
M14 melanoma = test system: M14 melanoma
IGROV1 ovarian = test system: IGROV1 ovarian
SNB-75 CNS = test system: SNB-75 CNS
786-0 renal = test system: 786-0 renal
NCI-H322M lung = test system: NCI-H322M lung
OVCAR-8 ovarian = test system: OVCAR-8 ovarian
UO-31 renal = test system: UO-31 renal
MCF7 breast = test system: MCF7 breast
SNB-19 CNS = test system: SNB-19 CNS

In the case of `C[C@]12CC[C@@H]3c4ccc(OC(=O)N(CCCl)CCCl)cc4CC[C@H]3[C@@H]1CC[C@@H]2OP(=O)(O)O`, the GI50 (EKVX NSCLC) is reported as over 100 µM, the TGI (EKVX NSCLC) is reported as over 100 µM and the GI50 (HT29 colon) is reported as over 100 µM. The TGI (HT29 colon) was over 100 µM, the GI50 (SW-620 colon) was over 100 µM and the TGI (SW-620 colon) was over 100 µM. The GI50 (UACC-62 melanoma) was over 100 µM, the TGI (UACC-62 melanoma) was over 100 µM and the GI50 (MDA-MB-435 melanoma) was 41.2 µM. It also gave a TGI (MDA-MB-435 melanoma) of over 100 µM, a GI50 (MDA-MB-231 breast) of over 100 µM and a TGI (MDA-MB-231 breast) of over 100 µM. The GI50 (UACC-257 melanoma) was over 100 µM, the TGI (UACC-257 melanoma) was over 100 µM and the GI50 (ACHN renal) was over 100 µM. For the same molecule, the TGI (ACHN renal) was over 100 µM, the GI50 (SK-MEL-28 melanoma) was over 100 µM and the TGI (SK-MEL-28 melanoma) was over 100 µM. For the same molecule, the GI50 (SK-MEL-5 melanoma) was over 100 µM, the TGI (SK-MEL-5 melanoma) was over 100 µM and the GI50 (HOP-62 NSCLC) was over 100 µM. The TGI (HOP-62 NSCLC) was over 100 µM, the GI50 (NCI-H226 lung) was over 100 µM and the TGI (NCI-H226 lung) was over 100 µM. The GI50 (CAKI-1 renal) was over 100 µM, the TGI (CAKI-1 renal) was over 100 µM and the GI50 (U251 glioblastoma) was over 100 µM. It also gave a TGI (U251 glioblastoma) of over 100 µM, a GI50 (HL-60(TB) leukemia) of over 100 µM and a TGI (HL-60(TB) leukemia) of over 100 µM. The GI50 (MDA-MB-468 breast) was over 100 µM, the TGI (MDA-MB-468 breast) was over 100 µM and the GI50 (NCI-H460 NSCLC) was over 100 µM. It also gave a TGI (NCI-H460 NSCLC) of over 100 µM, a GI50 (HCC-2998 colon) of over 100 µM and a TGI (HCC-2998 colon) of over 100 µM. For the same molecule, the GI50 (HCT-15 colon) was over 100 µM, the TGI (HCT-15 colon) was over 100 µM and the GI50 (OVCAR-4 ovarian) was over 100 µM. It also gave a TGI (OVCAR-4 ovarian) of over 100 µM, a GI50 (SF-268 CNS) of over 100 µM and a TGI (SF-268 CNS) of over 100 µM. It also gave a GI50 (KM12 colon) of over 100 µM, a TGI (KM12 colon) of over 100 µM and a GI50 (SR leukemia) of over 100 µM. For the same molecule, the TGI (SR leukemia) was over 100 µM, the GI50 (HCT-116 colon) was over 100 µM and the TGI (HCT-116 colon) was over 100 µM. For the same molecule, the GI50 (NCI-H23 lung) was over 100 µM, the TGI (NCI-H23 lung) was over 100 µM and the GI50 (NCI/ADR-RES ovarian) was over 100 µM. It also gave a TGI (NCI/ADR-RES ovarian) of over 100 µM, a GI50 (SN12C renal) of over 100 µM and a TGI (SN12C renal) of over 100 µM. The GI50 (MALME-3M melanoma) was over 100 µM, the TGI (MALME-3M melanoma) was over 100 µM and the GI50 (LOX IMVI melanoma) was over 100 µM. It also gave a TGI (LOX IMVI melanoma) of over 100 µM, a GI50 (SK-OV-3 ovarian) of over 100 µM and a TGI (SK-OV-3 ovarian) of over 100 µM. For the same molecule, the GI50 (DU-145 prostate) was over 100 µM, the TGI (DU-145 prostate) was over 100 µM and the GI50 (PC-3 prostate) was over 100 µM. It also gave a TGI (PC-3 prostate) of over 100 µM, a GI50 (HOP-92 NSCLC) of over 100 µM and a TGI (HOP-92 NSCLC) of over 100 µM. It also gave a GI50 (TK-10 renal) of over 100 µM, a TGI (TK-10 renal) of over 100 µM and a GI50 (A549 NSCLC) of over 100 µM. It also gave a TGI (A549 NSCLC) of over 100 µM, a GI50 (OVCAR-5 ovarian) of over 100 µM and a TGI (OVCAR-5 ovarian) of over 100 µM. For the same molecule, the GI50 (RXF 393 renal) was 47.7 µM, the TGI (RXF 393 renal) was over 100 µM and the GI50 (SF-539 CNS) was over 100 µM. For the same molecule, the TGI (SF-539 CNS) was over 100 µM, the GI50 (T-47D breast) was over 100 µM and the TGI (T-47D breast) was over 100 µM. It also gave a GI50 (BT-549 breast) of 25 µM, a TGI (BT-549 breast) of over 100 µM and a GI50 (SF-295 CNS) of over 100 µM. It also gave a TGI (SF-295 CNS) of over 100 µM, a GI50 (NCI-H522 lung) of over 100 µM and a TGI (NCI-H522 lung) of over 100 µM. The GI50 (A498 renal) was over 100 µM, the TGI (A498 renal) was over 100 µM and the GI50 (OVCAR-3 ovarian) was over 100 µM. For the same molecule, the TGI (OVCAR-3 ovarian) was over 100 µM, the GI50 (HS 578T breast) was over 100 µM and the TGI (HS 578T breast) was over 100 µM. For the same molecule, the GI50 (MOLT-4 leukemia) was over 100 µM, the TGI (MOLT-4 leukemia) was over 100 µM and the GI50 (RPMI-8226 leukemia) was over 100 µM. The TGI (RPMI-8226 leukemia) was over 100 µM, the GI50 (COLO 205 colon) was over 100 µM and the TGI (COLO 205 colon) was over 100 µM. It also gave a GI50 (M14 melanoma) of over 100 µM, a TGI (M14 melanoma) of over 100 µM and a GI50 (IGROV1 ovarian) of over 100 µM. It also gave a TGI (IGROV1 ovarian) of over 100 µM, a GI50 (SNB-75 CNS) of over 100 µM and a TGI (SNB-75 CNS) of over 100 µM. It also gave a GI50 (786-0 renal) of over 100 µM, a TGI (786-0 renal) of over 100 µM and a GI50 (NCI-H322M lung) of over 100 µM. For the same molecule, the TGI (NCI-H322M lung) was over 100 µM, the GI50 (OVCAR-8 ovarian) was over 100 µM and the TGI (OVCAR-8 ovarian) was over 100 µM. The GI50 (UO-31 renal) was over 100 µM, the TGI (UO-31 renal) was over 100 µM and the GI50 (MCF7 breast) was over 100 µM. The TGI (MCF7 breast) was over 100 µM, the GI50 (SNB-19 CNS) was over 100 µM and the TGI (SNB-19 CNS) was over 100 µM.
